Where a name gives a salt, the structure may show the parent alone.
What was measured:
[1] = tested on: Lipopolysaccharide (LPS)-induced lethal sepsis; set-up: species or system ICR mice; conditions: mouse, in vivo
[2] = tested on: experimental sepsis models; conditions: reported in literature; cited from earlier work

## CN(C(=O)/C=C/c1ccoc1)[C@@H]1CC[C@@]2(O)[C@H]3Cc4ccc(O)c5c4[C@@]2(CCN3CC2CC2)[C@H]1O5.Cl [Compound 1, (−)-17-(cyclopropylmethyl)-3,14β-dihydroxy-4,5α-epoxy-6 [N-methyl-trans-3-(3-furyl)acrylamide]morphinan hydrochloric acid salt]
[1]
  survival rate after 48 hours: 40%
  survival rate at 24 hours after administration of LPS: 80%
  survival rate of sepsis model animals (FIG. 1): increases the survival rate

## CN(C(=O)NCc1cccc(C(F)(F)F)c1)[C@@H]1CC[C@@]2(O)[C@H]3Cc4ccc(O)c5c4[C@@]2(CCN3CC2CC2)[C@H]1O5 [Compound 3, 17-cyclopropylmethyl-3,14β-dihydroxy-4,5α-epoxy-6β-(N-methyl-N′-3-trifluoromethylbenzylureido)morphinan tartaric acid salt]
[1]
  survival rate at 31 hours after administration of LPS: 70.0%

## CN1CC[C@]23c4c5ccc(O)c4O[C@H]2[C@@H](O)C=C[C@H]3[C@H]1C5 [morphine]
[2]
  survival rate of experimental sepsis models: decrease survival rate

## C=CCN1CC[C@]23c4c5ccc(O)c4O[C@H]2C(=O)CC[C@@]3(O)[C@H]1C5 [naloxone]
[2]
  fever of experimental sepsis models: suppresses fever

## (D)Phe-(D)Phe-(D)Nle-(D)Arg-NH2
[1]
  survival rate at 24 hours after administration of LPS: 66.7%

Reference: patent US7652025B2 (priority 2001, dated 2010)
